According to patent publication US20110070190A1 (Roche Palo Alto LLC, priority 2009, published 2011):

Legend:
[1] = target: T1, HCV polymerase (NS5B570n-Con1) (Hepatitis C virus genotype 1b, UniProt Q9WMX2); test: HCV NS5B RNA polymerase activity (incorporation of radiolabeled nucleotide into acid insoluble RNA); type: biochemical, HCV Con1 strain
T1 construct: a 21 amino acid C-terminal deletion of full-length HCV polymerase; made in house; host or cells: E. coli BL21(DE3) pLysS, plasmid pET17b
Protocol: The enzymatic activity of HCV polymerase (NS5B570n-Con1) was measured as the incorporation of radiolabeled nucleotide monophosphates into acid insoluble RNA products. Unincorporated radiolabeled substrate was removed by filtration and scintillant was added to the washed and dried filter plate containing radiolabeled RNA product. The amount of RNA product generated by NS5B570n-Con1 at the end of the reaction was directly proportional to the amount of light emitted by the scintillant.
The HCV polymerase used in the enzymatic activity assay is a 21 amino acid C-terminal deletion of full-length HCV polymerase derived from HCV Con1 strain, genotype 1b (GenBank accession number AJ242654) (NS5B570n-Con1). The NS5B570n-Con1 was sub-cloned downstream to the T7 promoter of the plasmid expression construct pET17b and transformed into E. coli strain BL21(DE3) pLysS for protein expression. A single colony was used to start an innoculum for a 10 L culture in LB media supplemented with 100 μg/mL ampicillin at 37° C. Protein expression was induced by the addition of 0.25 mM isopropyl-β-D-thiogalactopyranoside (IPTG) when the optical density of the culture at […] was 0.8. Induction of protein expression was carried out at 30° C. for 16 h after which the cells were harvested by centrifugation. NS5B570n-Con1 was purified to homogeneity using a three-column purification protocol including subsequent column chromatography on Ni-NTA, SP-Sepharose HP and Superdex 75 resins.
Enzymatic reactions in the presence of cIRES RNA template (see paragraph [00213]) contained 20 nM cIRES RNA, 20 nM NS5B570n-Con1 enzyme, 0.5 μCi of tritiated UTP (Perkin Elmer catalog no. TRK-412; specific activity: 30 to 60 Ci/mmol;), 1 μM each ATP, CTP, and GTP, 40 mM Tris-HCl pH 8.0, 40 mM NaCl, 4 mM DTT (dithiothreitol), 4 mM MgCl2, 5 μl of compound serial diluted in DMSO, and nuclease-free water to a final reaction volume of 50 μl. Enzymatic reactions in the presence of poly A RNA template (see paragraph [00213]) contained 20 nM Poly A:oligo(rU)16 premixed (see section 0004), 20 nM NS5B570n-Con1 enzyme, 1 μCi of tritiated UTP (Perkin Elmer catalog no. TRK-412; specific activity: 30 to 60 Ci/mmol), 40 mM Tris-HCl pH 8.0, 40 mM NaCl, 4 mM DTT (dithiothreitol), 4 mM MgCl2, 5 μl of compound serial diluted in DMSO, and nuclease-free water to a final reaction volume of 50 μl. Reaction mixtures were assembled in 96-well filter plates (cat #MADVN0B, Millipore Co.) and incubated for 2 h at 30° C. Reactions were stopped by addition of 10% final (v/v) trichloroacetic acid and incubated for 40 min at 4° C. Reactions were filtered, washed with 8 reaction volumes of 10% (v/v) trichloroacetic acetic acid, 4 reaction volumes of 70% (v/v) ethanol, air dried, and 25 μl of scintillant (Microscint 20, Perkin-Elmer) was added to each reaction well.
Two RNA templates were used to assay compounds described herein. The cIRES RNA template was 377 nucleotide long and consisted of a partial complementary sequence (36 nucleotides) of the core protein, followed by 341 nucleotide of the complementary sequence of the internal ribosome entry site. The poly A RNA template (GE Amersham catalog number 27-4110) was a homopolymeric RNA pre-annealed to a oligo(rU)16 primer at a molar ratio of 3-to-1 (primer-template).
The amount of light emitted from the scintillant was converted to counts per minute (CPM) on a Topcount® plate reader (Perkin-Elmer, Energy Range: Low, Efficiency Mode: Normal, Count Time: 1 min, Background Subtract: none, Cross talk reduction: Off).
Data was analyzed in Excel® (Microsoft®) and ActivityBase® (Idbs®). The reaction in the absence of enzyme was used to determine the background signal, which was subtracted from the enzymatic reactions. Positive control reactions were performed in the absence of compound, from which the background corrected activity was set as 100% polymerase activity. All data was expressed as a percentage of the positive control. […]

HCV = conditions: cited from earlier work

Compound	melting point	IC50 [1]	effect on serum levels of HCV-RNA (HCV; monotherapy / sole treatment)	patients with serum amino transferase levels reduced to normal (HCV; monotherapy)
O=c1ncn(Cc2ccc(Cl)cc2)c2cc(-c3ccc(OCc4ccccn4)c(Cl)c3)sc12 [Compound I-6, 1-(4-chloro-benzyl)-6-[3-chloro-4-(pyridin-2-ylmethoxy)-phenyl]-1H-thieno[3,2-d]pyrimidin-4-one]	272 to 274 °C	0.018 µM		
O=c1ncn(Cc2ccc(Cl)cc2)c2cc(-c3ccc(OCc4cnccn4)cc3)sc12 [Compound I-16, 1-(4-chloro-benzyl)-6-[4-(pyrazin-2-ylmethoxy)-phenyl]-1H-thieno[3,2-d]pyrimidin-4-one]	236.9 to 239.6 °C	0.071 µM		
Cc1ccc(Cn2cnc(=O)c3sc(-c4ccccc4)cc32)c(F)c1 [Compound I-21]	225.1 to 225.8 °C	0.126 µM		
Cc1ccc(Cn2cnc(=O)c3sc(-c4ccc(Cl)cc4)cc32)cc1 [Compound I-22]	244.1 to 247.5 °C	0.131 µM		
O=c1ncn(Cc2ccc(Cl)cc2)c2cc(-c3ccc(OCc4ccccn4)cc3)sc12 [Compound I-28, 1-(4-Chloro-benzyl)-6-[4-(pyridin-2-ylmethoxy)-phenyl]-1H-thieno[3,2-d]pyrimidin-4-one]	233 to 235 °C	0.051 µM		
Cc1ccc(Cn2cnc(=O)c3sc(-c4ccc(C(C)(C)C)cc4)cc32)cc1 [Compound I-29]	260.5 to 261.5 °C	0.223 µM		
O=C(Nc1ccc(-c2cc3c(s2)c(=O)ncn3Cc2ccc(Cl)cc2)nc1)c1ccccn1 [Compound I-40, Pyridine-2-carboxylic acid {6-[1-(4-chloro-benzyl)-4-oxo-1,4-dihydro-thieno[3,2-d]pyrimidin-6-yl]-pyridin-3-yl}-amide]		0.131 µM		
O=C(Nc1ccc(-c2cc3c(s2)c(=O)ncn3Cc2ccc(Cl)cc2)cn1)c1ccccn1 [Compound I-41, Pyridine-2-carboxylic acid {5-[1-(4-chloro-benzyl)-4-oxo-1,4-dihydro-thieno[3,2-d]pyrimidin-6-yl]-pyridin-2-yl}-amide]		0.062 µM		
Cc1cc(N)n2nc(-c3ccc(-c4cc5c(s4)c(=O)ncn5Cc4ccc(Cl)cc4)cn3)cc2n1 [Compound I-42, 6-[6-(7-Amino-5-methyl-pyrazolo[1,5-a]pyrimidin-2-yl)-pyridin-3-yl]-1-(4-chloro-benzyl)-1H-thieno[3,2-d]pyrimidin-4-one]		0.019 µM		
Cc1cc(N)n2nc(-c3ccc(-c4cc5c(s4)c(=O)ncn5C[C@H]4CC[C@H](C)CC4)cn3)cc2n1 [Compound I-43, 6-[6-(7-Amino-5-methyl-pyrazolo[1,5-a]pyrimidin-2-yl)-pyridin-3-yl]-1-(4-methyl-cyclohexylmethyl)-1H-thieno[3,2-d]pyrimidin-4-one]		0.428 µM		
O=c1ncn(Cc2ccc(Cl)cc2)c2cc(-c3ccc(OCc4ccccc4)c(Cl)c3)sc12 [Compound I-44, 6-(4-Benzyloxy-3-chloro-phenyl)-1-(4-chloro-benzyl)-1H-thieno[3,2-d]pyrimidin-4-one]	222 to 224 °C	0.03 µM		
Cc1cc(N)nc(COc2ccc(-c3cc4c(s3)c(=O)ncn4Cc3ccc(Cl)cc3)cc2)n1 [Compound I-45, 6-[4-(4-Amino-6-methyl-pyrimidin-2-ylmethoxy)-phenyl]-1-(4-chloro-benzyl)-1H-thieno[3,2-d]pyrimidin-4-one]	272 to 274 °C	0.372 µM		
O=C(Nc1ccc(-c2cc3c(s2)c(=O)ncn3Cc2ccc(Cl)cc2)cc1)c1ccc(O)cn1 [Compound I-46, 5-Hydroxy-pyridine-2-carboxylic acid, {4-[1-(4-chloro-benzyl)-4-oxo-1,4-dihydro-thieno[3,2-d]pyrimidin-6-yl]-phenyl}-amide]		0.017 µM		
O=C(Nc1ccccc1)c1ccc(-c2cc3c(s2)c(=O)ncn3Cc2ccc(Cl)cc2)cc1 [Compound I-47, 4-[1-(4-Chloro-benzyl)-4-oxo-1,4-dihydro-thieno[3,2-d]pyrimidin-6-yl]-N-phenyl-benzamide]		~0.04 µM		
O=c1ncn(Cc2ccc(Cl)cc2)c2cc(-c3ccc(SCc4ccccn4)cc3)sc12 [Compound I-48, 1-(4-Chloro-benzyl)-6-[4-(pyridin-2-ylmethylsulfanyl)-phenyl]-1H-thieno[3,2-d]pyrimidin-4-one]		0.163 µM		
O=c1ncn(Cc2ccc(Cl)cc2)c2cc(-c3ccc(NCc4ccccc4)cc3)sc12 [Compound I-49, 6-(4-Benzylamino-phenyl)-1-(4-chloro-benzyl)-1H-thieno[3,2-d]pyrimidin-4-one]		0.377 µM		
O=c1ncn(Cc2ccc(Cl)cc2)c2cc(-c3ccc(OCc4cccnc4)cc3)sc12 [Compound I-50, 1-(4-Chloro-benzyl)-6-[4-(pyridin-3-ylmethoxy)-phenyl]-1H-thieno[3,2-d]pyrimidin-4-one]	255 to 257 °C	0.103 µM		
O=c1ncn(Cc2ccc(Cl)cc2)c2cc(-c3ccc(SCc4cccnc4)cc3)sc12 [Compound I-51, 1-(4-Chloro-benzyl)-6-[4-(pyridin-3-ylmethylsulfanyl)-phenyl]-1H-thieno[3,2-d]pyrimidin-4-one]		0.313 µM		
N#Cc1ccc(-c2cc3c(s2)c(=O)ncn3Cc2ccc(Cl)cc2)cc1 [Compound I-52, 4-[1-(4-Chloro-benzyl)-4-oxo-1,4-dihydro-thieno[3,2-d]pyrimidin-6-yl]-benzonitrile]	> 300 °C	1.6 µM		
Cc1ccc(Cn2cnc(=O)c3sc(-c4ccc(CO)cc4)cc32)cc1 [Compound I-53, 6-(4-Hydroxymethyl-phenyl)-1-(4-methyl-benzyl)-1H-thieno[3,2-d]pyrimidin-4-one]		0.56 µM		
O=C(Nc1ccc(-c2cc3c(s2)c(=O)ncn3Cc2ccc(Cl)cc2)cc1)N1CCCC1 [Compound I-54, Pyrrolidine-1-carboxylic acid {4-[1-(4-chloro-benzyl)-4-oxo-1,4-dihydro-thieno[3,2-d]pyrimidin-6-yl]-phenyl}-amide]		0.076 µM		
CC(C)C(=O)Nc1ccc(-c2cc3c(s2)c(=O)ncn3Cc2ccc(Cl)cc2)cc1F [Compound I-55]		1.79 µM		
O=c1ncn(Cc2ccc(Cl)cc2)c2cc(-c3ccc(N4CCCC4)cc3)sc12 [Compound I-56, 1-(4-Chloro-benzyl)-6-(4-pyrrolidin-1-yl-phenyl)-1H-thieno[3,2-d]pyrimidin-4-one]		1.61 µM		
Cc1ccc(Cn2cnc(=O)c3sc(-c4ccc(-c5cc6ncccn6n5)cc4)cc32)cc1 [Compound I-57, 1-(4-Methyl-benzyl)-6-(4-pyrazolo[1,5-a]pyrimidin-2-yl-phenyl)-1H-thieno[3,2-d]pyrimidin-4-one]		0.108 µM		
O=c1ncn(Cc2ccc(Cl)cc2)c2cc(-c3ccc(OCc4ccncc4)cc3)sc12 [Compound I-58]	257 to 259 °C	0.049 µM		
O=c1ncn(Cc2ccc(Cl)cc2)c2cc(-c3ccc(SCc4ccncc4)cc3)sc12 [Compound I-59]		0.167 µM		
NC(=O)c1ncn([C@@H]2O[C@H](CO)[C@@H](O)[C@H]2O)n1 [ribavirin, 1-((2R,3R,4S,5R)-3,4-Dihydroxy-5-hydroxymethyl-tetrahydro-furan-2-yl)-1H-[1,2,4]triazole-3-carboxylic acid amide]			does not lower serum levels of HCV-RNA	40%
